Data as given in ChEMBL document CHEMBL4308841, “Synthesis, in vitro antiproliferative activity, and kinase inhibitory effects of pyrazole-containing diarylureas and diarylamides” (Eur J Med Chem, 2018).

Key:
IGROV-1 = assay: Growth inhibition of human IGROV1 cells assessed as cell growth at 1 uM incubated for 48 hrs by sulforhodamine B assay relative to control; format: functional; details: IGROV-1, 48 h, read-out: Activity
[1] = biological target: Mitogen-activated protein kinase 8 (Homo sapiens) (UniProt P45983); assay: Inhibition of human JNK1 at 10 uM using ATF2 as substrate after 40 mins in presence of [gamma33P]ATP by scintillation counting method relative to control
[2] = biological target: RAC-alpha serine/threonine-protein kinase (Homo sapiens) (UniProt P31749); assay: Inhibition of human AKT1 at 10 uM using KGSGSGRPRTSSFAEG as substrate after 40 mins in presence of [gamma33P]ATP by scintillation counting method relative to control
HOP-92 [3] = assay: Growth inhibition of human HOP92 cells assessed as cell growth at 100 uM incubated for 48 hrs by sulforhodamine B assay relative to control; format: functional; details: HOP-92, 48 h, read-out: Activity
MDA-MB-435 [4] = assay: Growth inhibition of human MDA-MB-435 cells assessed as cell growth at 0.01 uM incubated for 48 hrs by sulforhodamine B assay relative to control; format: functional; details: MDA-MB-435, 48 h, read-out: Activity
[5] = biological target: Fibroblast growth factor receptor 1 (Homo sapiens) (UniProt P11362); assay: Inhibition of human FGFR1 at 10 uM using KKKSPGEYVNIEFG as substrate after 40 mins in presence of [gamma33P]ATP by scintillation counting method relative to control
[6] = biological target: Hepatocyte growth factor receptor (Homo sapiens) (UniProt P08581); assay: Inhibition of human c-MET at 10 uM using KKKSPGEYVNIEFG as substrate after 40 mins in presence of [gamma33P]ATP by scintillation counting method relative to control
HOP-92 [7] = assay: Growth inhibition of human HOP92 cells assessed as cell growth at 0.1 uM incubated for 48 hrs by sulforhodamine B assay relative to control; format: functional; details: HOP-92, 48 h, read-out: Activity
[8] = biological target: Platelet-derived growth factor receptor beta (Homo sapiens) (UniProt P09619); assay: Inhibition of human PDGFRb at 10 uM using poly[Glu:Tyr] (4:1) as substrate after 40 mins in presence of [gamma33P]ATP by scintillation counting method relative to control
[9] = biological target: Mitogen-activated protein kinase 1 (Homo sapiens) (UniProt P28482); assay: Inhibition of human ERK2 at 10 uM using myelin basic protein as substrate after 40 mins in presence of [gamma33P]ATP by scintillation counting method relative to control
[10] = biological target: ALK tyrosine kinase receptor (Homo sapiens) (UniProt Q9UM73); assay: Inhibition of human ALK at 10 uM using poly[Glu:Tyr] (4:1) as substrate after 40 mins in presence of [gamma33P]ATP by scintillation counting method relative to control
SNB-19 = assay: Growth inhibition of human SNB19 cells assessed as cell growth at 0.1 uM incubated for 48 hrs by sulforhodamine B assay relative to control; format: functional; details: SNB-19, 48 h, read-out: Activity
UACC-257 = assay: Growth inhibition of human UACC257 cells assessed as cell growth at 1 uM incubated for 48 hrs by sulforhodamine B assay relative to control; format: functional; details: UACC-257, 48 h, read-out: Activity
RPMI-8226 = assay: Induction of apoptosis in human RPMI8226 cells assessed as increase in caspase 3/7 level; format: functional, cell-based
TK-10 [11] = assay: Growth inhibition of human TK10 cells assessed as cell growth at 100 uM incubated for 48 hrs by sulforhodamine B assay relative to control; format: functional; details: TK-10, 48 h, read-out: Activity
TK-10 [12] = assay: Growth inhibition of human TK10 cells assessed as cell growth at 0.01 uM incubated for 48 hrs by sulforhodamine B assay relative to control; format: functional; details: TK-10, 48 h, read-out: Activity
[13] = biological target: Serine/threonine-protein kinase B-raf (Homo sapiens) (UniProt P15056); assay: Inhibition of human BRAF at 10 uM using MEK1 (K97R) as substrate after 40 mins in presence of [gamma33P]ATP by scintillation counting method relative to control
[14] = biological target: Receptor-type tyrosine-protein kinase FLT3 (Homo sapiens) (UniProt P36888); assay: Inhibition of human FLT3 at 10 uM using EAIYAAPFAKKK as substrate after 40 mins in presence of [gamma33P]ATP by scintillation counting method relative to control
[15] = biological target: Vascular endothelial growth factor receptor 2 (Homo sapiens) (UniProt P35968); assay: Inhibition of human VEGFR2 at 10 uM using poly[Glu:Tyr] (4:1) as substrate after 40 mins in presence of [gamma33P]ATP by scintillation counting method relative to control
T47D = assay: Growth inhibition of human T47D cells assessed as cell growth at 0.01 uM incubated for 48 hrs by sulforhodamine B assay relative to control; format: functional; details: read-out: Activity
NCI-H460 = assay: Growth inhibition of human NCI-H460 cells incubated for 48 hrs by sulforhodamine B assay; format: functional, cell-based; details: NCI-H460, 48 h
MDA-MB-435 [16] = assay: Growth inhibition of human MDA-MB-435 cells assessed as cell growth at 1 uM incubated for 48 hrs by sulforhodamine B assay relative to control; format: functional; details: MDA-MB-435, 48 h, read-out: Activity
[17] = biological target: Receptor tyrosine-protein kinase erbB-4 (Homo sapiens) (UniProt Q15303); assay: Inhibition of human ERBB4 at 10 uM using poly[Glu:Tyr] (4:1) as substrate after 40 mins in presence of [gamma33P]ATP by scintillation counting method relative to control
[18] = biological target: Macrophage colony-stimulating factor 1 receptor (Homo sapiens) (UniProt P07333); assay: Inhibition of human FMS at 10 uM using poly[Glu:Tyr] (4:1) as substrate after 40 mins in presence of [gamma33P]ATP by scintillation counting method relative to control
TK-10 [19] = assay: Growth inhibition of human TK10 cells assessed as cell growth at 0.1 uM incubated for 48 hrs by sulforhodamine B assay relative to control; format: functional; details: TK-10, 48 h, read-out: Activity
[20] = biological target: Mitogen-activated protein kinase 14 (Homo sapiens) (UniProt Q16539); assay: Inhibition of human p38alpha at 10 uM using myelin basic protein as substrate after 40 mins in presence of [gamma33P]ATP by scintillation counting method relative to control
HT-29 = assay: Growth inhibition of human HT-29 cells incubated for 48 hrs by sulforhodamine B assay; format: functional, cell-based; details: HT-29, 48 h
[21] = biological target: Tyrosine-protein kinase JAK2 (Homo sapiens) (UniProt O60674); assay: Inhibition of human JAK2 at 10 uM using poly[Glu:Tyr] (4:1) as substrate after 40 mins in presence of [gamma33P]ATP by scintillation counting method relative to control
[22] = read-out: pLC50 (the source's name) (converted)

Sequence of ALK tyrosine kinase receptor (Homo sapiens) (Q9UM73 19-1620 limits assumed): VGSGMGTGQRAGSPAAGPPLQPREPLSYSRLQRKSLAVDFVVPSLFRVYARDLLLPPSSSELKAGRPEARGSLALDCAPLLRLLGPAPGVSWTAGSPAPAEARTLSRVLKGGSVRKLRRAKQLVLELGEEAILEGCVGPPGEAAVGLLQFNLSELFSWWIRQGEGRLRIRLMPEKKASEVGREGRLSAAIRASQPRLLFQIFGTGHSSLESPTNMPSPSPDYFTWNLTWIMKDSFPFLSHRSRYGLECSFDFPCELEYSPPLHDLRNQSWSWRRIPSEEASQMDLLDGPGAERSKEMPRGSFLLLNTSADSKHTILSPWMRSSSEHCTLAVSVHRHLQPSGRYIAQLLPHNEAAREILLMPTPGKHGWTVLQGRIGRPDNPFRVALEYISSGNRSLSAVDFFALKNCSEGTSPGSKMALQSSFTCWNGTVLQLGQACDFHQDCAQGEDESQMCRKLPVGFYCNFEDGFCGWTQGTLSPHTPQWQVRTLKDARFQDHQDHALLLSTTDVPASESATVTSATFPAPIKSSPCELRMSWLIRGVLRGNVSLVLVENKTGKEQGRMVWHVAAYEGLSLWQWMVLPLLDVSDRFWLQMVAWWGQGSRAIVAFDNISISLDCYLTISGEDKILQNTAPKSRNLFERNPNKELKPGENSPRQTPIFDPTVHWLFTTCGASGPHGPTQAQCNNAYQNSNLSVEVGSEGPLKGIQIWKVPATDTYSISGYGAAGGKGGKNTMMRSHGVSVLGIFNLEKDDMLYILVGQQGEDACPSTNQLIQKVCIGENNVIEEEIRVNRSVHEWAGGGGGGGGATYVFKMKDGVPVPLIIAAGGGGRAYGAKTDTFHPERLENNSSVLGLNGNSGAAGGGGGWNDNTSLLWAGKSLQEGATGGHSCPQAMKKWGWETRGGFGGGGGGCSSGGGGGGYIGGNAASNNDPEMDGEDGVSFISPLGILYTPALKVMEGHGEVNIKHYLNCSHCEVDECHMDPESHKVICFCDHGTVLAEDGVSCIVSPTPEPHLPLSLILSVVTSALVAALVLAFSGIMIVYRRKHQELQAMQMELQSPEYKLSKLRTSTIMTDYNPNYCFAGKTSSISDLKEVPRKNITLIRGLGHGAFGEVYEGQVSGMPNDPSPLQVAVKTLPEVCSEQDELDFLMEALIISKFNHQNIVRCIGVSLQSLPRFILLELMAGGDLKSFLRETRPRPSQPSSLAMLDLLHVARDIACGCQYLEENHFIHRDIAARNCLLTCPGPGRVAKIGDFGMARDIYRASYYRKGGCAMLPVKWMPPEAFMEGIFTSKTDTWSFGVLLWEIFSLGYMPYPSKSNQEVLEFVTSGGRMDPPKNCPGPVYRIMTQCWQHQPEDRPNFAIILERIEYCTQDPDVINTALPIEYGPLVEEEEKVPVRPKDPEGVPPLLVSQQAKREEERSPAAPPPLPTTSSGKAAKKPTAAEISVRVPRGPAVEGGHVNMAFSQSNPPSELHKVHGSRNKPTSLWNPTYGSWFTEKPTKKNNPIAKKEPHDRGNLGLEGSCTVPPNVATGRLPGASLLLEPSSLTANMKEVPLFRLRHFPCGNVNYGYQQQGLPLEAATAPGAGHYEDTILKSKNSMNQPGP
Sequence of Platelet-derived growth factor receptor beta (Homo sapiens) (P09619 whole entry): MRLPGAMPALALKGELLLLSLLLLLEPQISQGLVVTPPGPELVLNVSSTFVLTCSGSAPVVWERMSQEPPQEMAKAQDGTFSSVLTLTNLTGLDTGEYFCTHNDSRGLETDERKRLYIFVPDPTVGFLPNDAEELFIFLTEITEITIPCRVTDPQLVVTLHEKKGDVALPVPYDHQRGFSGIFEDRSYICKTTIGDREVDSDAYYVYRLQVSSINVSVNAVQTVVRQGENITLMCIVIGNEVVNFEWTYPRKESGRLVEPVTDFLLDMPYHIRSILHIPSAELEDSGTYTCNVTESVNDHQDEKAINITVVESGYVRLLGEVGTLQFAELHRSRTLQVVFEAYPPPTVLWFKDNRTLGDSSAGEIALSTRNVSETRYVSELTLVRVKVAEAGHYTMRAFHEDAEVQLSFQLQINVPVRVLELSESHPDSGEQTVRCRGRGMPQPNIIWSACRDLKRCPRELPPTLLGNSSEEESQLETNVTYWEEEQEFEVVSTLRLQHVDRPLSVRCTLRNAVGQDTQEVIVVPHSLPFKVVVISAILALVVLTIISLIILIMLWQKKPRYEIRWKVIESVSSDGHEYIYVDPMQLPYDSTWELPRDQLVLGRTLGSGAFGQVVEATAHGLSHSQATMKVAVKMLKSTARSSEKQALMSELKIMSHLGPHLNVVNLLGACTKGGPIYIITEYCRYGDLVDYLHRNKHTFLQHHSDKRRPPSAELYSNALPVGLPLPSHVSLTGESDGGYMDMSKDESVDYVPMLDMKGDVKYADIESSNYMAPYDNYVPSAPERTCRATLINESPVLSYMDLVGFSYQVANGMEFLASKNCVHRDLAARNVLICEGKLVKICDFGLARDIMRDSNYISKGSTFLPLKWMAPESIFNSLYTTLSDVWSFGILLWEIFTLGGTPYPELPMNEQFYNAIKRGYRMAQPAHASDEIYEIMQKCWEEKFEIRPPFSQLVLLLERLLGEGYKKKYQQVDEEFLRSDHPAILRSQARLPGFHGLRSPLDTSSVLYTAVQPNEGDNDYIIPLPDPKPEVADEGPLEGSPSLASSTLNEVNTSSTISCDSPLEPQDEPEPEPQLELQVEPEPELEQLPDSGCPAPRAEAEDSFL
Sequence of Hepatocyte growth factor receptor (Homo sapiens) (P08581 whole entry): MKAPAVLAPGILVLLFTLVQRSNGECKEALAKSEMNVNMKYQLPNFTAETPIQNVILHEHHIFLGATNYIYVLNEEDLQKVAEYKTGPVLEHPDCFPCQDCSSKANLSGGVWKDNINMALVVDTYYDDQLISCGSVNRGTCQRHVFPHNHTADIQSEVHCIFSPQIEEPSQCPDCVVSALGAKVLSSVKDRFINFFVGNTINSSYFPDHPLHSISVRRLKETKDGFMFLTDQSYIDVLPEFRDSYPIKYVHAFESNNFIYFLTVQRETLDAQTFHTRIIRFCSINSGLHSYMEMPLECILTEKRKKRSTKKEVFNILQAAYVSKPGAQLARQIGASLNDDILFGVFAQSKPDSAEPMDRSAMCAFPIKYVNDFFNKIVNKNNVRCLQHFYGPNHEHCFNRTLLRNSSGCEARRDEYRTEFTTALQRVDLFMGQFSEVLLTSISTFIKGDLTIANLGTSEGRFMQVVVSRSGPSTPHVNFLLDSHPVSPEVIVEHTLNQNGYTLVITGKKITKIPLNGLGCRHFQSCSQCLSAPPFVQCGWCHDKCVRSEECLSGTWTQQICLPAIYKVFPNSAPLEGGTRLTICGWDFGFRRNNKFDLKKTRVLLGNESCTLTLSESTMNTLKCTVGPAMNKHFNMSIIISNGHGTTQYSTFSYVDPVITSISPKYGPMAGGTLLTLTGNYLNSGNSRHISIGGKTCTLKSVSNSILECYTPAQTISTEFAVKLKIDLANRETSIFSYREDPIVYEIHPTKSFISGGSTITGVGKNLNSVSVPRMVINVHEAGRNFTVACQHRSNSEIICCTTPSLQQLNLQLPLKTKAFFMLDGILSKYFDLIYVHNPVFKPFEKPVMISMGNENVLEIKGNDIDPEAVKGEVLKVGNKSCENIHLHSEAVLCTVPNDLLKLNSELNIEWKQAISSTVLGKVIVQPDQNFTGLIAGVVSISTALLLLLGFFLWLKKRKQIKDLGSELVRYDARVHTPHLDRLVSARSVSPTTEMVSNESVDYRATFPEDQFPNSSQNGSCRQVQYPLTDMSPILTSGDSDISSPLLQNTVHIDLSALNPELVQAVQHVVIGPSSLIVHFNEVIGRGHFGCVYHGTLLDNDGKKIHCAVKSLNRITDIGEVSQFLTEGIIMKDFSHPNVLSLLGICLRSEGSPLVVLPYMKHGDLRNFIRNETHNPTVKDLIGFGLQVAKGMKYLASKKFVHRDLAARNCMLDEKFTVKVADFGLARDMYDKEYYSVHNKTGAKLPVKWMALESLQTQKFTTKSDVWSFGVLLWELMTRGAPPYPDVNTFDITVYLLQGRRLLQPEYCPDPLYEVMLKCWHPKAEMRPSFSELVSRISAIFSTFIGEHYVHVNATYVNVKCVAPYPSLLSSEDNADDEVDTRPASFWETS
Sequence of Serine/threonine-protein kinase B-raf (Homo sapiens) (P15056 whole entry): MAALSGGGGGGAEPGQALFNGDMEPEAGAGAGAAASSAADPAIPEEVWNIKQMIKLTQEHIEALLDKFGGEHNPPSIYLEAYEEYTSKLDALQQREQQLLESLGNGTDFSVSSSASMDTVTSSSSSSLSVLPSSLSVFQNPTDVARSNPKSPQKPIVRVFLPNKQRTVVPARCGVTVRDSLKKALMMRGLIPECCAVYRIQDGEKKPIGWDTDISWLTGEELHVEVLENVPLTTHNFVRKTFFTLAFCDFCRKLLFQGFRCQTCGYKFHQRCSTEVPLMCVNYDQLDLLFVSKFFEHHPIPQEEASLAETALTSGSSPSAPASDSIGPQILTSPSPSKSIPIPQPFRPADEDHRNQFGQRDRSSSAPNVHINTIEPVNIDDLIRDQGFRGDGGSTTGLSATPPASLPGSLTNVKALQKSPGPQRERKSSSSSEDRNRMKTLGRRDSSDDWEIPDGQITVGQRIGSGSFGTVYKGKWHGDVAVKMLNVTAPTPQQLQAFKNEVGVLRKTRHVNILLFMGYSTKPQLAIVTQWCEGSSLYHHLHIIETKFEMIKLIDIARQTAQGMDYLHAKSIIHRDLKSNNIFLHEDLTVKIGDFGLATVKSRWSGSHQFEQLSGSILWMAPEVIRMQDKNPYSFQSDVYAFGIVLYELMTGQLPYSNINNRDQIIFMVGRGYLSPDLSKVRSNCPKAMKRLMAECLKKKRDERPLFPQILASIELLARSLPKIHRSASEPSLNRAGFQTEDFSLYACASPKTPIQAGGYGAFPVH

SMILES: COc1cc(Cl)cc(-c2nn(-c3cccc(NC(=O)Nc4cc(C(F)(F)F)cc(C(F)(F)F)c4)c3)cc2-c2ccncc2)c1
- growth at 1 µM (IGROV-1): 33%
- inhibition [1]: 2.27%
- inhibition [2]: -5.92%
- growth at 100 µM (HOP-92 [3]): -77%
- growth at 0.01 µM (MDA-MB-435 [4]): 97%
- inhibition [5]: -1.71%
- inhibition [6]: 5.66%
- growth at 0.1 µM (HOP-92 [7]): 83%
- inhibition [8]: -9.26%
- inhibition [9]: -8.66%
- inhibition [10]: -3.77%
- growth at 0.1 µM (SNB-19): 87%
- growth at 1 µM (UACC-257): 23%
- EC50 (RPMI-8226): 1520 nM
- growth at 100 µM (TK-10 [11]): -91%
- growth at 0.01 µM (TK-10 [12]): 96%
- inhibition [13]: 39.1%
- inhibition [14]: -2.82%
- inhibition [15]: -5.83%
- growth at 0.01 µM (T47D): 96%
- IC50 (NCI-H460): 380 nM
- GI50 (NCI-H460; read-out: GI50): 377 nM
- TGI (NCI-H460; read-out: TGI): 1760 nM
- GI50 (NCI-H460; read-out: pGI50 (converted)): 380 nM
- CC50 (NCI-H460; [22]): 17.4 µM
- TGI (NCI-H460; read-out: pTGI (converted)): 1780 nM
- growth at 1 µM (MDA-MB-435 [16]): 22%
- inhibition [17]: 0.9%
- inhibition [18]: -0.94%
- growth at 0.1 µM (TK-10 [19]): 90%
- inhibition [20]: -5.41%
- IC50 (HT-29): 450 nM
- GI50 (HT-29; read-out: GI50): 453 nM
- CC50 (HT-29; read-out: LC50 (the source's name)): 0.0126 µM
- TGI (HT-29; read-out: TGI): 2210 nM
- GI50 (HT-29; read-out: pGI50 (converted)): 457 nM
- CC50 (HT-29; [22]): 12.9 µM
- TGI (HT-29; read-out: pTGI (converted)): 2820 nM
- inhibition [21]: -2.88%
